In patent US11485736B2 (KSQ Therapeutics, Inc., priority 2018, dated 2022):
Read-outs that look alike come from different tables or passages of the source.

Assays:
[1] = ADME solubility determination at pH 2.0 and pH 7.4; format: physicochemical; conditions: aqueous buffer, thermodynamic from solid, LC-MS/MS
Procedure, shortened: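 Dried residues of 10 mM DMSO stocks were shaken in PBS pH 7.4 or pH 2.0 for 24 hours at 25° C. and 1,100 rpm. After centrifugation, supernatants were quantified by LC-MS/MS against a standard of known concentration, applying a dilution factor.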

[2] = Liver microsomal stability, human liver microsomes; format: in vitro ADME; conditions: 1 μM compound, NADPH, read-out: t1/2 (min) in HLM
Procedure, shortened: (§1)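 Compound (1 μM final) was incubated with prewarmed human or rat liver microsomes (1 mg/mL in 100 mM phosphate master mix) plus NADPH; aliquots at 0.5–30 minutes were quenched in cold acetonitrile and quantified by LC-MS/MS. Half-life came from the ln(% remaining) versus time slope, converted to CLint (μL/min/mg prot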

[3] = Liver microsomal stability, rat liver microsomes; format: in vitro ADME; conditions: 1 μM compound, NADPH, read-out: t1/2 (min) in RLM
Procedure, shortened: as §1

[4] = PBS pH 2.0, shaken at 25° C. for 24 hours, read-out: Solubility at pH 2.0
[5] = PBS pH 7.4, shaken at 25° C. for 24 hours, read-out: Solubility at pH 7.4

Structure (SMILES)	solubility at 24 h [1, 4] [µM]	solubility at 24 h [1, 5] [µM]	half-life at 1 μM [2] [min]	half-life at 1 μM [3] [min]	solubility at 24 h ([1]; phosphate buffered saline, PBS pH 2.0, shaken at 25° C. for 24 hours, read-out: Solubility at pH 2.0) [µM]	solubility at 24 h ([1]; phosphate buffered saline, PBS pH 7.4, shaken at 25° C. for 24 hours, read-out: Solubility at pH 7.4) [µM]
COc1ncnc(C2CC2)c1-c1ncc2cnn(Cc3ccc(-c4nc(C#N)cn4C)cc3)c2n1 [Example 69]	> 10	> 10	< 25	< 25		
COc1ncnc(C2CC2)c1-c1ncc2cnn(Cc3ccc(-c4nc(C(F)(F)F)cn4C(C)C)c(F)c3)c2n1 [Example 19]	> 10	> 10	> 25	> 25		
CCOc1cc(C(F)(F)F)nn1-c1ccc(Cn2ncc3cnc(-c4c(OC)ncnc4C4CC4)nc32)cc1 [Example 76]	< 10	< 10	> 25	> 25		
COc1ncnc(C2CC2)c1-c1ncc2cnn(Cc3ccc(-c4nc(C(F)(F)F)cn4CC(F)F)cc3)c2n1 [Example 138]	> 10	> 10	> 25	> 25		
COc1nc(C)c(-c2ncc3cnn(Cc4ccc(-c5nc(C(F)(F)F)cn5C)cc4)c3n2)c(OC)n1 [Example 111]	> 10	< 10	< 25	> 25		
COc1ncnc(C2CC2)c1-c1ncc2cnn(Cc3ccc(-c4nc(C(F)(F)F)c(Br)n4C(C)C)cc3)c2n1 [Example 162]	< 10	< 10	> 25	> 25		
CCn1cc(C(F)(F)F)nc1-c1ccc(Cn2nc(Br)c3cnc(-c4c(OC)ncnc4C4CC4)nc32)cc1 [Example 170, 3-bromo-6-(4-cyclopropyl-6-methoxypyrimidin-5-yl)-1-(4-(1-ethyl-4-(trifluoromethyl)-1H-imidazol-2-yl)benzyl)-1H-pyrazolo[3,4-d]pyrimidine]	< 10	< 10	> 25	< 25		
CC(C)c1ccccc1-c1ncc2ncn(Cc3ccc(-c4nc(C(F)(F)F)cn4C)cc3)c2n1 [Example 202, 2-(2-Isopropylphenyl)-9-(4-(1-methyl-4-(trifluoromethyl)-1H-imidazol-2-yl)benzyl)-9H-purine]	> 10	< 10	< 25	< 25		
COc1ncnc(C2CC2)c1-c1ncc2nc(C)n(Cc3ccc(-n4nc(C(F)(F)F)cc4C)cc3)c2n1 [Example 211]	> 10	> 10	< 25	> 25		
COCC(C)n1cc(C(F)(F)F)nc1-c1ccc(Cn2ncc3cnc(-c4c(OC)ncnc4C4CC4)nc32)cc1 (centres unmarked) [Example 150, 6-(4-cyclopropyl-6-methoxypyrimidin-5-yl)-1-(4-(1-(1-methoxypropan-2-yl)-4-(trifluoromethyl)-1H-imidazol-2-yl)benzyl)-1H-pyrazolo[3,4-d]pyrimidine]	> 10	> 10	< 25	< 25		
COc1cc(Cn2ncc3cnc(-c4c(OC)ncnc4C4CC4)nc32)ccc1-c1nc(C(F)(F)F)cn1CCF [Example 129]	> 10	< 10	> 25	> 25		
CCn1cc(C(F)(F)F)nc1-c1ccc(Cn2nc(C)c3cnc(-c4c(OC)ncnc4C4CC4)nc32)cc1 [Example 187, 6-(4-cyclopropyl-6-methoxypyrimidin-5-yl)-1-(4-(1-ethyl-4-(trifluoromethyl)-1H-imidazol-2-yl)benzyl)-3-methyl-1H-pyrazolo[3,4-d]pyrimidine]	< 10	< 10	> 25	< 25		
COc1ncnc(C2CC2)c1-c1ncc2cnn([C@@H](C)c3ccc(-c4nc(C(F)(F)F)cn4CCF)cc3)c2n1 [Example 169]	> 10	< 10	> 25	> 25		
COc1nc(N)nc(C2CC2)c1-c1ncc2cnn(Cc3ccc(-n4nc(C(F)(F)F)cc4C)cc3)c2n1 [Example 112]	> 10	< 10	> 25	> 25		
COc1ncnc(C2CC2)c1-c1ncc2cnn(Cc3ccc(-c4nc(C(F)(F)F)nn4C)cc3)c2n1 [Example 56]			> 25	> 25	> 10	< 10
COc1ncnc(C2(C)CC2)c1-c1ncc2cnn(Cc3ccc(-c4nc(C(F)(F)F)cn4C(C)C)cc3)c2n1 [Example 107]	> 10	> 10	> 25	> 25		

Structure (SMILES)	solubility at 24 h [1, 4] [µM]	solubility at 24 h [1, 5] [µM]	half-life at 1 μM [2] [min]	half-life at 1 μM [3] [min]	solubility at 24 h ([1]; phosphate buffered saline, PBS pH 2.0, shaken at 25° C. for 24 hours, read-out: Solubility at pH 2.0) [µM]	solubility at 24 h ([1]; phosphate buffered saline, PBS pH 7.4, shaken at 25° C. for 24 hours, read-out: Solubility at pH 7.4) [µM]
CCn1cc(C(F)(F)F)nc1-c1ccc(Cn2ncc3cnc(-c4c(OC5CCC5)ncnc4C4CC4)nc32)cc1 [Example 64]	< 10	< 10	< 25	< 25		
COc1ncnc(C(C)C)c1-c1ncc2cnn(Cc3ccc(-n4nc(C(F)(F)F)cc4C)cc3)c2n1 [Example 115]	< 10	< 10	< 25	< 25		
COc1ncnc(C2CC2)c1-c1ncc2cnn(Cc3ccc(-n4nc(C(F)F)cc4N(C)C)cc3)c2n1 [Example 123]	< 10	< 10	< 25	< 25		
COc1ncnc(C2CC2)c1-c1ncc2cnn(Cc3ccc(-n4nc(C(F)(F)F)cc4N(C)C)cc3)c2n1 [Example 121]	< 10	< 10	< 25	< 25		
COc1ncnc(C2CC2)c1-c1ncc2c(OC)nn(Cc3ccc(-c4cn(C(C)C)c(C(F)(F)F)n4)cc3)c2n1 [Example 185]	< 10	< 10	> 25	> 25		
CC(C)c1ccccc1-c1ncc2cnn(C(C)c3ccc(-c4nc(C(F)(F)F)cn4C)cc3)c2n1 (centres unmarked) [Example 24]	< 10	< 10	< 25	< 25		
CCn1cc(C(F)(F)F)nc1-c1ccc(Cn2ncc3cnc(-c4c(OC(F)F)ncnc4C4CC4)nc32)cc1 [Example 61]	< 10	< 10	> 25	< 25		
CCn1cc(C(F)(F)F)nc1-c1ccc(Cn2nc(SC)c3cnc(-c4c(OC)ncnc4C4CC4)nc32)cc1 [Example 190, 6-(4-cyclopropyl-6-methoxypyrimidin-5-yl)-1-(4-(1-ethyl-4-(trifluoromethyl)-1H-imidazol-2-yl)benzyl)-3-(methylthio)-1H-pyrazolo[3,4-d]pyrimidine]	< 10	< 10	< 25	< 25		
COc1ncnc(C2CC2)c1-c1ncc2cnn(Cc3ccc(-c4nc5c(F)cccc5n4C)cc3)c2n1 [Example 131]	> 10	< 10	> 25	> 25		
CCn1cc(C(F)(F)F)nc1-c1ccc([C@@H](C)n2ncc3cnc(-c4c(OC)ncnc4C4CC4)nc32)cc1 (single isomer, unassigned) [Example 95]	> 10	< 10	> 25	< 25		
CCc1nc2cnc(-c3c(OC)ncnc3C3CC3)nc2n1Cc1ccc(-c2nc(C(F)(F)F)cn2C(C)C)cc1 [Example 205, 2-(4-cyclopropyl-6-methoxypyrimidin-5-yl)-8-ethyl-9-(4-(1-isopropyl-4-(trifluoromethyl)-1H-imidazol-2-yl)benzyl)-9H-purine]	> 10	> 10	> 25	> 25		
COc1ncnc(C2CC2)c1-c1ncc2nc(C(C)C)n(Cc3ccc(-n4nc(C(F)(F)F)cc4C)cc3)c2n1 [Example 212]	< 10	< 10	> 25	> 25		
COc1cn(C(C)C)c(-c2ccc(Cn3ncc4cnc(-c5c(OC)ncnc5C5CC5)nc43)cc2)n1 [Example 74]	> 10	> 10	< 25	< 25		
COc1ncnc(C2CC2)c1-c1ncc2c(OC)nn([C@@H](C)c3ccc(-c4nc(C(F)(F)F)cn4C(C)C)cc3)c2n1 [Example 181]	> 10	< 10	> 25	> 25		
COc1ncnc(C2(C)CC2)c1-c1ncc2cnn(Cc3ccc(-c4nc(C(F)(F)F)cn4C)cc3)c2n1 [Example 104]	> 10	> 10	< 25	< 25		
COc1ncnc(C2CC2)c1-c1ncc2cnn(Cc3ccc(-n4nc(C#N)cc4OC)cc3)c2n1 [Example 70]	< 10	< 10	> 25	< 25		
